Literature values as cited in patent EP4052553A1, “AGRICHEMICAL COMPOSITION FOR TREATING SEEDS AND USE THEREOF” (priority 2019, dated 2021).

conditions: distilled water at 20°C

| Compound | aqueous solubility [ppm] |
| --- | --- |
| C#CCN(C)c1c(C#N)cnn1-c1nn2c(c1Cl)CCCC2 [pyraclonil] | 50.1 |
| COc1nc(OC)nc(C(=O)c2cccc(F)c2N(C)S(=O)(=O)C(F)F)n1 [triafamone] | 41 |
| CCC(CC)Nc1c([N+](=O)[O-])cc(C)c(C)c1[N+](=O)[O-] [Pendimethalin] | 0.26 |
| CCCOCCN(C(=O)CCl)c1c(CC)cccc1CC [pretilachlor] | 74 |
| COc1cc(OC)nc(NC(=O)NS(=O)(=O)Nc2ccccc2C(=O)C2CC2)n1 [cyclosulfamuron] | 0.34 |
| CCOC(=O)c1ccccc1S(=O)(=O)NC(=O)Nc1nc(Cl)cc(OC)n1 [chlorimuron-ethyl] | 8.6 |
| COc1ccc(-n2c(=O)c(C(=O)C3C(=O)CCCC3=O)nc3c(Cl)cccc32)cc1 [fenquinotrione] | 17 |
| COc1cc(OC)nc(Sc2cccc3c2C(=O)OC3C)n1 (stereo not drawn) [pyriftalid] | 1.8 |
| COCc1cccc(C(O)c2nc(OC)cc(OC)n2)c1NS(=O)(=O)C(F)F (stereo not drawn) [pyrimisulfan] | 87 |
| CO/N=C(/C)c1cccc(Oc2nc(OC)cc(OC)n2)c1C(=O)OC [pyriminobac-methyl] | 9.3 |
| COc1cc(OC)nc(Oc2cccc(Oc3nc(OC)cc(OC)n3)c2C(=O)ON=C(c2ccccc2)c2ccccc2)n1 [pyribenzoxim] | 3.5 |
| C[C@@H](Oc1ccc(Oc2nc3ccc(Cl)cc3o2)cc1)C(=O)N(C)c1ccccc1F [metamifop] | 0.69 |
| CCCc1ccc2nc(Cl)c(S(=O)(=O)NC(=O)Nc3nc(OC)cc(OC)n3)n2n1 [propyrisulfuron] | 0.98 |
| CCOC(=O)c1cnn(C)c1S(=O)(=O)NC(=O)Nc1nc(OC)cc(OC)n1 [pyrazosulfuron-ethyl] | 9.8 |
| COC(=O)c1c(Cl)nn(C)c1S(=O)(=O)NC(=O)Nc1nc(OC)cc(OC)n1 [halosulfuron-methyl] | 10.2 |
| Cc1ccc(C(=O)COc2c(C(=O)c3ccc(Cl)c(C)c3Cl)c(C)nn2C)cc1 [benzofenap] | 0.12 |
| CS(=O)(=O)c1ccc(C(=O)C2=C(Sc3ccccc3)C3CCC(C3)C2=O)c(Cl)c1 (stereo not drawn) [benzobicyclon] | 0.052 |
| CC(C)=C1OC(=O)N(c2cc(OC3CCCC3)c(Cl)cc2F)C1=O [pentoxazone] | 0.22 |
